Data set [1] has as its target T1, LiTAT_truncated (Leishmania infantum, UniProt A4IDL0).
T1 construct: gene TAT; E. coli BL21(DE3) pLysS; homodimer; model Ser40-Lys448
T1 sequence (A4IDL0 39-448): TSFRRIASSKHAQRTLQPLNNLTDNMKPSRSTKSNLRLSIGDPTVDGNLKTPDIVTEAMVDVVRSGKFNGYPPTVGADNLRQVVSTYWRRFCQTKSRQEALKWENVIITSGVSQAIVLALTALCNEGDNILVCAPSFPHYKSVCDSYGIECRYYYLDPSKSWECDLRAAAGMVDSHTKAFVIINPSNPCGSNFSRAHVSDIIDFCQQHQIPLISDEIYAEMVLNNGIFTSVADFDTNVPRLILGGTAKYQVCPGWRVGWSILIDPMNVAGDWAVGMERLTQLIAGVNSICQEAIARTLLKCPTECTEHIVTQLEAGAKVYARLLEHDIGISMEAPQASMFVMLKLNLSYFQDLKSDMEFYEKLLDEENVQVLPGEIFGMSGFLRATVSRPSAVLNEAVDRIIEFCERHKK
Nature of the data set: X-ray crystallography, […] A. As to conditions: covalent, internal aldimine at Lys286; crystals at pH 8.5. The class given is binding.

Data set [2] addresses T1, LiTAT_truncated. The data set can be described thus: Diamondstone p-hydroxybenzaldehyde assay. The class given is biochemical.
Data set [3] concerns the molecule itself. The data set can be described thus: SEC; HiLoad 26/60 Superdex 75 prep grade, room temperature, 20 mM HEPES pH 7.0, 300 mM NaCl, 5% glycerol, 1 mM TCEP; molecular weight estimated from a calibration curve (Low Molecular Weight Kit).

In the case of `Cc1ncc(COP(=O)(O)O)c(C=O)c1O` [PLP], the “X-ray crystallography, 2.35 A” value in data set [1] is “In both subunits of LiTAT, PLP is covalently bound to Lys286”.

In the case of `CC(=O)C(=O)O` [pyruvate], the Diamondstone p-hydroxybenzaldehyde assay entry in data set [2] (amino acceptor, co-substrate tyrosine) is on record as “it can transaminate pyruvate with high efficiency”.

For `N[C@@H](Cc1ccc(O)cc1)C(=O)O` [tyrosine], the Diamondstone p-hydroxybenzaldehyde assay entry in data set [2] (amino donor, co-substrate pyruvate) is on record as “using tyrosine as the amino donor”.

B1: Leishmania infantum tyrosine aminotransferase, full length (enzyme, UniProt A4IDL0 1-448, looked up)
chain: MTIDTQAAPAAQTLKAGNSTGSLTEERREVEQQRAAENTSFRRIASSKHAQRTLQPLNNLTDNMKPSRSTKSNLRLSIGDPTVDGNLKTPDIVTEAMVDVVRSGKFNGYPPTVGADNLRQVVSTYWRRFCQTKSRQEALKWENVIITSGVSQAIVLALTALCNEGDNILVCAPSFPHYKSVCDSYGIECRYYYLDPSKSWECDLRAAAGMVDSHTKAFVIINPSNPCGSNFSRAHVSDIIDFCQQHQIPLISDEIYAEMVLNNGIFTSVADFDTNVPRLILGGTAKYQVCPGWRVGWSILIDPMNVAGDWAVGMERLTQLIAGVNSICQEAIARTLLKCPTECTEHIVTQLEAGAKVYARLLEHDIGISMEAPQASMFVMLKLNLSYFQDLKSDMEFYEKLLDEENVQVLPGEIFGMSGFLRATVSRPSAVLNEAVDRIIEFCERHKK
notes: Tyrosine aminotransferase of Leishmania infantum (MHOM/ES/98/10445), full-length gene LinJ.36.2490 encoding 448 amino acids; Cloned BamHI/HindIII into pRSET-A; PLP (4 uM) was in the lysis and IMAC buffers; also called LiTAT; TAT; source: E. coli BL21 (DE3) pLysS, purified (HisTrap FF, Superdex 75 SEC); not shown: His tag (from the vector pRSET-A)
On to B1, for which the stoichiometry N (usually the number of molecules, sites or subunits per partner or assembly) in data set [3] was 2.

B2: Leishmania infantum tyrosine aminotransferase, truncated (lacking the first 114 nucleotides of the annotated sequence) (domain or fragment, UniProt A4IDL0 39-448, looked up)
chain: T1 sequence (A4IDL0 39-448)
modifications: PLP covalently bound to Lys286
notes: residues Ser40-Lys448 built in chain A of the crystal structure; they are worked out from the deletion of the first 114 nucleotides of a protein of 448 amino acids; source: E. coli BL21 (DE3) pLysS, purified (HisTrap FF, Superdex 75 SEC); not shown: His tag (from the vector pRSET-A)
Take B2: the “stoichiometry N” value in data set [3] is 2.

The values above are taken from publication PMC4014323, “Structure of tyrosine aminotransferase from Leishmania infantum” (Acta Crystallographica. Section F, Structural Biology …, 2014).
